In one series the target is T1, recombinant FphE (rFphE) (Staphylococcus aureus, UniProt Q2FDS6).
T1 construct: otherwise full-length FphE (Uniprot ID Q2FDS6) and FphH (A0A0H2XJL0) proteins; His6 (3C-cleavable, pETNKI-his-3C-LIC vector) (N); made in house; E. coli is inferred from the pET28a-type vector, IPTG induction and LB/kanamycin
T1 sequence (Q2FDS6 1-276): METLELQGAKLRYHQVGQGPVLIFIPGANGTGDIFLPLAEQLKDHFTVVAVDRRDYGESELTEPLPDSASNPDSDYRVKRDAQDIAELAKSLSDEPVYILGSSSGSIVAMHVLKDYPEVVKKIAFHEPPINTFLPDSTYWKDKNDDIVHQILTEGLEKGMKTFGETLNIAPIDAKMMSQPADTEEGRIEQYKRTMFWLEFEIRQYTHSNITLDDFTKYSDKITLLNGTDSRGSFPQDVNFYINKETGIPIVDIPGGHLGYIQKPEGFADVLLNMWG
Kind of series: biochemical. As to conditions: from dose response IC50 values. The method, then: (§1) Fluorogenic substrate assays were performed as previously described[9],[11],[12]. […] Turnover rates in the linear phase of the reaction (10–20 min) were calculated using GraphPad prism 10.0 software as RFU/min. Rates were normalized by subtracting background hydrolysis rates measured for each substrate in reaction buffer in the absence of protein.
(§2) For the screening, 8 μL of enzyme solution was pipetted into the assay plates containing 50 nL compound and allowed to incubate for one hour at room temperature. […] For four-point dose response plates, 2.5, 10, 25, 50 nL droplets were transferred to get […], 10, 25, 50 μM compound concentrations in the 384 well plates again using an Echo acoustic liquid handler as above. […] Calculations were done with GraphPad Prism 10.0 software. […] IC50 values were derived from the fitted curve.

Series [1] concerns Fph enzymes in live S. aureus cells (USA300). Briefly: Competition of FP-alkyne labeling in live S. aureus cells. In kind it is cell-based, Staphylococcus aureus. Conditions: 100 μM compound, live S. aureus cells. The method, then:
One colony of each of S. aureus wild-type and transposon mutants fphB::Tn, fphE::Tn and fphH::Tn picked from growth on a Tryptic soya agar plate were inoculated in 5 mL of Tryptic soya broth (TSB). The overnight bacterial cultures were spun down at 5,000 g for 10 min and pellet was collected. The pellets were washed twice in 1X PBS buffer and resuspended in the same buffer. Cells were first preincubated with the indicated concentrations of inhibitors for 2hr at 37°C. The cells were washed twice with 1X PBS buffer. The resuspended pellets were incubated with Fluorophosphonate-alkyne (FP-alkyne) for 30 min at 37°C. Cells were washed again twice with 1X PBS buffer and resuspended in with 1X PBS and 0.1% Triton–X and lysed by beat beating at 4°C. Next, lysed cells (20 μL) were mixed with 2.16 μL of freshly prepared click mix (0.5 μL of 50 mM CuSO4 in H2O, 1.16 μL of 100 mM BTTAA in DMSO, and 0.5 μL of N3-Cy5 in DMSO) and 1.16 μL of 300 mM sodium ascorbate solution in H2O and incubated at 37 °C for 30 min. Next step, 20 μL of 4X SDS loading buffer was added in each sample and boiled at 100 °C for 10 min. The processed samples were allowed to cool and analyzed by SDS-PAGE (12%) running at 120 V in an electrophoresis chamber. Cy5 fluorescence was imaged using the Cy5 channel on a Typhoon 9410 Imager (Amersham Biosciences).

Series [2] has as its target T2, rFphH (Staphylococcus aureus, UniProt A0A0H2XJL0).
T2 construct: otherwise full-length FphE (Uniprot ID Q2FDS6) and FphH (A0A0H2XJL0) proteins; His6 (3C-cleavable, pETNKI-his-3C-LIC vector) (N); made in house; E. coli is inferred from the pET28a-type vector, IPTG induction and LB/kanamycin
T2 sequence (A0A0H2XJL0 1-246): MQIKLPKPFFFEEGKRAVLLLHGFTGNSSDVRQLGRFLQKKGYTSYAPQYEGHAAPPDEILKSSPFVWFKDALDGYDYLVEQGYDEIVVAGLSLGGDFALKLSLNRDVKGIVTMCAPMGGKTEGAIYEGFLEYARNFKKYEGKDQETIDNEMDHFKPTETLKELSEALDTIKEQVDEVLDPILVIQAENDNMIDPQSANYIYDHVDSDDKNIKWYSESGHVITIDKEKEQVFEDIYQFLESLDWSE
Briefly: Intact protein LC-MS of rFphH with inhibitors. In kind it is binding. Conditions: 1 μM rFphH, 10 μM probe, 1hr. The procedure:
Next, 10 μL of the labeled sample was injected and analyzed by LC-MS. […] Protein labeling efficiency was quantified by UV. The acquired mass of protein was deconvoluted using the deconvolution software in Agilent Bioanalysis Software package.

In the next series the target is T3, recombinant FphH (rFphH) (Staphylococcus aureus, UniProt A0A0H2XJL0).
T3 sequence (A0A0H2XJL0 1-246): T2 sequence (A0A0H2XJL0 1-246)
Kind of series: biochemical. As to conditions: for selectivity in the dose-dependent response assay (in words): three Fphs tested. The method, then:
as §1, §2

The target of a further series is T4, recombinant FphB (rFphB) (Staphylococcus aureus, UniProt A0A0H2XJG5).
T4 construct: made in house
In kind it is biochemical. As to conditions: enzyme inhibition assay. The procedure:
as §1, §2

Series [3] can be described thus: Stability in aqueous assay buffer by LC/MS. In kind it is physicochemical. The text has this:
This shift was not observed in the acidic mass spectrometry buffer (0.1% formic acid (FA) in H2O as buffer A, and 0.1% FA in acetonitrile (ACN) as buffer B; SI details). We therefore reasoned that the molecule likely reacts to release the fluoride under neutral pH conditions (Fig. 3c). Given the presence of the amide nitrogen in close proximity to the sulfur (VI) atom we reasoned that it likely produces a saccharine-like structure by a cyclization to release the fluorine atom[31]. This would create a molecule that could then be ring-opened by attack by the active site serine on the sulfur center, resulting in irreversible protein modification. […] We were able to purify the non-cyclized OSF-fragment, X13d under acidic conditions, as well as the cyclized OSF-fragment, X13e. We observed a clear mass difference of 20 Da between the two purified species by LC/MS analysis.

For series [4], the target named is T2, rFphH. Kind of series: FP-Cy5 active site labeling of recombinant protein, rFphH. In kind it is binding. Conditions: 500 nM rFphH. The procedure: For activity-based protein labeling experiments, 500 nM of rFphB, rFphE and rFphH in 1X PBS and 0.1% Triton–X were preincubated with different concentrations of inhibitors or DMSO for 2hr at room temperature, followed by adding 300 nM of fluorophosphonate (FP) alkyne and incubated for 30 min at room temperature. Next, 20 μL of the reaction volume were mixed with 2.16 μL of freshly prepared click mix (0.5 μL of 50 mM CuSO4 in H2O, 1.16 μL of 100 mM BTTAA in DMSO, and 0.5 μL of N3-Cy5 in DMSO) and 1.16 μL of 300 mM sodium ascorbate solution in H2O. Samples were incubated at 37°C for 30 min, boiled in SDS loading buffer and analyzed by SDS–PAGE. Cy5 fluorescence was imaged using the Cy5 channel on a Typhoon 9410 Imager (Amersham Biosciences).

In series [5] the test system is Fph enzymes in S. aureus USA300 WT lysates. Briefly: Competition of FP labeling in S. aureus lysates. In kind it is binding, Staphylococcus aureus. As to conditions: 120 min preincubation. The method, then: Figure 3 Biochemical characterization of fluorosulfate-based fragments. […] (d) LC/MS profiles for X13d and X13e in LC/MS buffer or aqueous buffer. (e) Proposed reaction mechanism of X13d or X13e binding to rFphH, Fluorescence SDS-PAGE image of rFphH for direct visualization of labelling by clickable probes X13d and X13e with Cy5-azide. (f) Native mass spectrometry (MS) characterization of 1μM rFphH alone or after 1hr incubation with 10 μM X13d or X13e. […] (h) Competition of FP-Cy5 labeling of S. aureus lysates. […] The indicated Fph transposon mutants (::Tn) lysates are included to highlight the location of the three enzymes in the gel. All data shown are representative of three independent experiments.
Cells were then lysed and click labeled with sulfo-Cy5 azide and analyzed by SDS-PAGE. […] We hypothesized this lack of competition may have been due to the inability to permeate the cell membranes. For bacteria, the permeability is influenced by the polarity of the compound, measured by clogP. Drugs targeting Gram-negative bacteria show higher polarities (clogP = − 0.1) compared to those targeting Gram-positive bacteria (clogP = 2.1)[32],[33]. […] Overall, this electrophile has a unique mechanism of binding with the active site serine of FphH and may be a valuable new electrophile class to target other serine hydrolases.

In a further series the target is T5, rFphE (Staphylococcus aureus, UniProt Q2FDS6).
T5 construct: otherwise full-length FphE (Uniprot ID Q2FDS6) and FphH (A0A0H2XJL0) proteins; His6 (3C-cleavable, pETNKI-his-3C-LIC vector) (N); made in house; E. coli is inferred from the pET28a-type vector, IPTG induction and LB/kanamycin
T5 sequence (Q2FDS6 1-276): T1 sequence (Q2FDS6 1-276)
Briefly: Mass spectrometry of rFphE labeling. In kind it is binding.

The series “crystal structure” deals with the molecule itself. Kind of series: crystal structure.

We go through 9 molecules from publication PMC11661381, “Covalent-fragment screening identifies selective inhibitors of multiple Staphylococcus aureus serine hydrolases important for growth and biofilm formation” (Research Square, 2024).

As a reminder, the IC50 is the point on the concentration scale where inhibition reaches its midpoint.

T4 sequence (A0A0H2XJG5 entry or part of it): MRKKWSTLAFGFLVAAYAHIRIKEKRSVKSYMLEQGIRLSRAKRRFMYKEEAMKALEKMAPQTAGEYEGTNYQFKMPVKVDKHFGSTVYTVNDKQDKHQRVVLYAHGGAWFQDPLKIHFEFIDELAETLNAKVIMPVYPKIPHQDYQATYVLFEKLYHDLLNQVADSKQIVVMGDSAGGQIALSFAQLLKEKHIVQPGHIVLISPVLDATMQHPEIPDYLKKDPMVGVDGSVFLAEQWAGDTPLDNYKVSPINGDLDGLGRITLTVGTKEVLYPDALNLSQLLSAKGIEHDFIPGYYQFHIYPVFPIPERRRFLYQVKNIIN

`COc1cc(OC)cc(B(O)O)c1` [W41]: on recombinant FphE (rFphE), the “selectivity for rFphE over rFphH” value is recorded as roughly 100 fold. Moreover, the “competition of FP labeling in live cells (in words)” value in series [1] was “unable to block FP labeling of any of the Fph enzymes”.
As for `C#Cc1cnccc1N1C(=O)c2ccccc2OS1(=O)=O` [X13e], at rFphH [2], the “mass shift of rFphH (in words)” value is “produced the expected mass shift”.
As to `CN1CCCN(C(=O)c2ccc(S(=O)(=O)F)cc2)c2ccccc21` [L17], the IC50 at recombinant FphH (rFphH) (IC50 (μM) FphH, 5 nM rFphH, 1 hr preincubation, 0.01–50 μM, N.D. = IC50 could not be determined due to incomplete inhibition at the highest concentration tested) amounted to 3 µM.
Turning to `CC1(C)OB(c2cnc3c(c2)CC(=O)N3)OC1(C)C` [AF22], the “selectivity in the dose-dependent response assay (in words)” value at recombinant FphH (rFphH) was “quite selective for rFphH”.
On to `Cc1ccc(OS(=O)(=O)F)c(C(=O)Nc2ccncc2)c1` [X13], for which, at recombinant FphB (rFphB), the “inhibition of rFphB (in words)” value is given as “no activity against rFphB”. Besides, in [3] (1X Phosphate buffer saline pH 7.5, 60 min, absence of protein), the “mass shift upon incubation in aqueous buffer” value turned out to be 20 Da. Further, at rFphH [4], the “competition of FP-Cy5 labeling of rFphH (in words)” value is given as “dose-dependent competition of protein labeling”. Besides, the “selectivity (higher potency) for rFphH over rFphE” value at recombinant FphH (rFphH) (from dose response IC50 values) was roughly 100 fold. In addition, in series [1], the “competition of FP labeling in live cells (in words)” value is on record as “Neither of the compounds competed with FP labeling in intact cells”. The “competition of FP labeling in lysates (in words)” value in series [5] is “dose-dependently competed with FP labeling of rFphH as well as rFphE at higher concentrations”. In addition, at rFphE, the “labeling of rFphE by mass-spectrometry (in words)” value was “No labeling”.
With `O=C(Nc1ccncc1)c1ccccc1OS(=O)(=O)F` [X13a], the “competition of FP-Cy5 labeling of rFphH (in words)” value on rFphH [4] is “dose-dependent competition of protein labeling”. Besides, in series [1], the “competition of FP labeling in live cells (in words)” value is “Neither of the compounds competed with FP labeling in intact cells”. In series [5], the “competition of FP labeling in lysates (in words)” value is “dose-dependently competed with FP labeling of rFphH as well as rFphE at higher concentrations”.
Take `Cc1cc(B2OC(C)(C)C(C)(C)O2)ccc1S(N)(=O)=O` [Q41]: the “selectivity in the dose-dependent response assay (in words)” value at recombinant FphH (rFphH) is on record as “quite selective for rFphH”.
As for `C#Cc1cnccc1NC(=O)c1ccccc1OS(=O)(=O)F` [X13d], the “mass shift of rFphH (in words)” value at rFphH [2] is recorded as “produced the expected mass shift”. The “conversion in pH 7.5 buffer (in words)” value in series [3] (pH 7.5 buffer) is “rapidly converted to the cyclic version”.

B1: FphE (fluorophosphonate-binding hydrolase E), S. aureus USA300, crystallography construct (enzyme)
chain: GPGMETLELQGAKLRYHQVGQGPVLIFIPGANGTGDIFLPLAEQLKDHFTVVAVDRRDYGESELTEPLPDSASNPDSDYRVKRDAQDIAELAKSLSDEPVYILGSSSGSIVAMHVLKDYPEVVKKIAFHEPPINTFLPDSTYWKDKNDDIVHQILTEGLEKGMKTFGETLNIAPIDAKMMSQPADTEEGRIEQYKRTMFWLEFEIRQYTHSNITLDDFTKYSDKITLLNGTDSRGSFPQDVNFYINKETGIPIVDIPGGHLGYIQKPEGFADVLLNMWG
notes: also called rFphE; source: E. coli expression from pet28a-(pETNKI-his-3C-LIC-kan), purified (Ni-NTA, size exclusion); tag cleaved with 3C protease
For B1, the binding result in the series “crystal structure” is reported as “binds”.
